# Measured values reported in paper PMC5218480 (PLoS ONE, 2017).
# Test system: MV-4-11 cells
# Experiment: Gene expression microarray analysis (Affymetrix PrimeView) and GSEA
# Format: cell-based, human
# Set-up: RFU PODN (11730768_x_at) / Fold change /veh PODN (11730768_x_at) / RFU LINC00158 (11744669_a_at) / Fold change /veh LINC00158 (11744669_a_at) / RFU DUSP10 (11751237_a_at) / Fold change /veh DUSP10 (11751237_a_at) / RFU ID3 (11757404_x_at) / Fold change /veh ID3 (11757404_x_at) / RFU PLEKHG5 (11737974_s_at) / Fold change /veh PLEKHG5 (11737974_s_at) / RFU LRRC4B (11730491_at) / Fold change /veh LRRC4B (11730491_at) / RFU GIMAP4 (11747438_a_at) / Fold change /veh GIMAP4 (11747438_a_at) / RFU KRT8 (11758183_x_at) / Fold change /veh KRT8 (11758183_x_at) / RFU CNN1 (11734310_a_at) / Fold change /veh CNN1 (11734310_a_at) / RFU VPS37D (11726825_at) / Fold change /veh VPS37D (11726825_at) / RFU C10orf10 (11716522_x_at) / Fold change /veh C10orf10 (11716522_x_at) / RFU KIR2DL2 /// KIR2DL4 /// KIR2DL5A /// KIR2DL5B /// KIR2DS1 /// KIR2DS2 /// KIR2DS3 /// KIR2DS4 /// KIR3DL3 /// KIR3DL3 /// KIR3DS1 (11738374_at) / Fold change /veh KIR2DL2 /// KIR2DL4 /// KIR2DL5A /// KIR2DL5B /// KIR2DS1 /// KIR2DS2 /// KIR2DS3 /// KIR2DS4 /// KIR3DL3 /// KIR3DL3 /// KIR3DS1 (11738374_at) / RFU C1QL1 (11718748_at) / Fold change /veh C1QL1 (11718748_at) / RFU TMPRSS4 (11747572_a_at) / Fold change /veh TMPRSS4 (11747572_a_at) / RFU HAMP (11756126_x_at) / Fold change /veh HAMP (11756126_x_at) / RFU RNFT2 (11725882_a_at) / Fold change /veh RNFT2 (11725882_a_at) / RFU NR4A2 (11747474_a_at) / Fold change /veh NR4A2 (11747474_a_at) / RFU ABCC12 (11746883_a_at) / Fold change /veh ABCC12 (11746883_a_at) / RFU TMEM136 (11760407_x_at) / Fold change /veh TMEM136 (11760407_x_at) / RFU CLDN22 /// WWC2 (11732394_at) / Fold change /veh CLDN22 /// WWC2 (11732394_at) / RFU HLA-DPB1 (11760878_x_at) / Fold change /veh HLA-DPB1 (11760878_x_at) / RFU SPINT1 (11716480_a_at) / Fold change /veh SPINT1 (11716480_a_at) / RFU GAP43 (11754022_s_at) / Fold change /veh GAP43 (11754022_s_at) / RFU A4GNT (11735810_at) / Fold change /veh A4GNT (11735810_at) / RFU PRB3 (11715151_x_at) / Fold change /veh PRB3 (11715151_x_at) / RFU TUBB4B (11761932_at) / Fold change /veh TUBB4B (11761932_at) / RFU CAPN14 (11732068_a_at) / Fold change /veh CAPN14 (11732068_a_at) / RFU TMCC2 (11721928_a_at) / Fold change /veh TMCC2 (11721928_a_at) / RFU IRGQ (11745062_a_at) / Fold change /veh IRGQ (11745062_a_at) / RFU FAM174B (11720279_a_at) / Fold change /veh FAM174B (11720279_a_at) / RFU TMPRSS4 (11748680_a_at) / Fold change /veh TMPRSS4 (11748680_a_at) / RFU FAM212B (11763350_a_at) / Fold change /veh FAM212B (11763350_a_at) / RFU PLEKHG5 (11743358_a_at) / Fold change /veh PLEKHG5 (11743358_a_at) / RFU ZSCAN30 (11745921_a_at) / Fold change /veh ZSCAN30 (11745921_a_at) / RFU CMKLR1 (11741424_a_at) / Fold change /veh CMKLR1 (11741424_a_at) / RFU LOC101060620 /// MAPK8IP1 (11723275_at) / Fold change /veh LOC101060620 /// MAPK8IP1 (11723275_at) / RFU SPTSSB (11747773_x_at) / Fold change /veh SPTSSB (11747773_x_at) / RFU PRSS12 (11739890_at) / Fold change /veh PRSS12 (11739890_at) / RFU BIN1 (11741810_x_at) / Fold change /veh BIN1 (11741810_x_at) / RFU WNT11 (11732464_a_at) / Fold change /veh WNT11 (11732464_a_at) / RFU C10orf10 (11716521_a_at) / Fold change /veh C10orf10 (11716521_a_at) / RFU C5orf56 (11738089_at) / Fold change /veh C5orf56 (11738089_at) / RFU CYB561 (11721691_x_at) / Fold change /veh CYB561 (11721691_x_at) / RFU ANKRD19P (11752326_a_at) / Fold change /veh ANKRD19P (11752326_a_at) / RFU OR2T12 /// OR2T33 /// OR2T8 (11738714_s_at) / Fold change /veh OR2T12 /// OR2T33 /// OR2T8 (11738714_s_at) / RFU VCAN (11748164_a_at) / Fold change /veh VCAN (11748164_a_at) / RFU JSRP1 (11732532_at) / Fold change /veh JSRP1 (11732532_at) / RFU KRTAP10-11 (11738290_x_at) / Fold change /veh KRTAP10-11 (11738290_x_at) / RFU MYO3A (11730013_a_at) / Fold change /veh MYO3A (11730013_a_at) / RFU EBF3 (11725865_a_at) / Fold change /veh EBF3 (11725865_a_at) / RFU CAMK2N1 (11719241_x_at) / Fold change /veh CAMK2N1 (11719241_x_at) / RFU C5orf56 (11738088_a_at) / Fold change /veh C5orf56 (11738088_a_at) / RFU OLFML3 (11715873_a_at) / Fold change /veh OLFML3 (11715873_a_at) / RFU LOC100653217 /// NTM (11731650_a_at) / Fold change /veh LOC100653217 /// NTM (11731650_a_at) / RFU MAPK11 (11762145_a_at) / Fold change /veh MAPK11 (11762145_a_at) / RFU FIZ1 (11724087_x_at) / Fold change /veh FIZ1 (11724087_x_at) / RFU OASL (11726364_x_at) / Fold change /veh OASL (11726364_x_at) / RFU SOX15 (11748057_x_at) / Fold change /veh SOX15 (11748057_x_at) / RFU CD79A (11719716_a_at) / Fold change /veh CD79A (11719716_a_at) / RFU HIST1H1D (11736915_at) / Fold change /veh HIST1H1D (11736915_at) / RFU CASKIN2 (11723855_a_at) / Fold change /veh CASKIN2 (11723855_a_at) / RFU LOC730098 (11760151_x_at) / Fold change /veh LOC730098 (11760151_x_at) / RFU OR4N2 (11742367_at) / Fold change /veh OR4N2 (11742367_at) / RFU PRRT2 (11749266_a_at) / Fold change /veh PRRT2 (11749266_a_at) / RFU SNX32 (11753110_a_at) / Fold change /veh SNX32 (11753110_a_at) / RFU CDHR5 (11726645_a_at) / Fold change /veh CDHR5 (11726645_a_at) / RFU RCAN1 (11760418_a_at) / Fold change /veh RCAN1 (11760418_a_at) / RFU FAM167A (11723789_a_at) / Fold change /veh FAM167A (11723789_a_at) / RFU FAM26E (11764081_at) / Fold change /veh FAM26E (11764081_at) / RFU ISYNA1 (11749810_s_at) / Fold change /veh ISYNA1 (11749810_s_at) / RFU ACY1 (11761880_at) / Fold change /veh ACY1 (11761880_at) / RFU 11764098_at / Fold change /veh 11764098_at / RFU SAMD14 (11745864_x_at) / Fold change /veh SAMD14 (11745864_x_at) / RFU NPB (11741838_a_at) / Fold change /veh NPB (11741838_a_at) / RFU TMPRSS6 (11731388_a_at) / Fold change /veh TMPRSS6 (11731388_a_at) / RFU KRTAP10-2 (11738614_at) / Fold change /veh KRTAP10-2 (11738614_at) / RFU ARHGAP8 /// PRR5-ARHGAP8 (11727945_x_at) / Fold change /veh ARHGAP8 /// PRR5-ARHGAP8 (11727945_x_at) / RFU KRTAP5-7 /// NADSYN1 (11734609_at) / Fold change /veh KRTAP5-7 /// NADSYN1 (11734609_at) / RFU RASL12 (11751679_a_at) / Fold change /veh RASL12 (11751679_a_at) / RFU CDKN2B (11736163_a_at) / Fold change /veh CDKN2B (11736163_a_at) / RFU PRF1 (11729649_at) / Fold change /veh PRF1 (11729649_at) / RFU, ZNF638 /// ZNF638-IT1 / Fold change vs veh, ZNF638 /// ZNF638-IT1 / RFU, PANK3 / Fold change vs veh, PANK3 / RFU, SH3YL1 / Fold change vs veh, SH3YL1 / RFU, ZEB2 / Fold change vs veh, ZEB2 / RFU, NRIP1 / Fold change vs veh, NRIP1 / RFU, PTTG1IP / Fold change vs veh, PTTG1IP / RFU, CAPN2 / Fold change vs veh, CAPN2 / RFU, MED14 / Fold change vs veh, MED14 / RFU, SNORA58 / Fold change vs veh, SNORA58 / RFU, C1orf63 / Fold change vs veh, C1orf63 / RFU, LRRFIP1 / Fold change vs veh, LRRFIP1 / RFU, NDUFAF7 / Fold change vs veh, NDUFAF7 / RFU, SLC12A2 / Fold change vs veh, SLC12A2 / RFU, IBTK / Fold change vs veh, IBTK / RFU, ESF1 / Fold change vs veh, ESF1 / Fold change vs veh, TMEM50B / RFU, TAOK1 / Fold change vs veh, TAOK1 / RFU, ACBD3 / Fold change vs veh, ACBD3 / RFU, TMA16 / Fold change vs veh, TMA16 / RFU, RWDD3 / Fold change vs veh, RWDD3 / RFU, BCAT1 / Fold change vs veh, BCAT1 / RFU, EDEM3 / Fold change vs veh, EDEM3 / RFU, TMEM33 / Fold change vs veh, TMEM33 / RFU, WDR75 / Fold change vs veh, WDR75 / RFU, AHCTF1 / Fold change vs veh, AHCTF1 / RFU, TFRC / Fold change vs veh, TFRC / RFU, ZDHHC17 / Fold change vs veh, ZDHHC17 / RFU, NOM1 / Fold change vs veh, NOM1 / RFU, ARL8B / Fold change vs veh, ARL8B / RFU, ZBTB11 / Fold change vs veh, ZBTB11 / RFU, TAMM41 / Fold change vs veh, TAMM41 / RFU, KIAA1704 /// LOC100996395 / Fold change vs veh, KIAA1704 /// LOC100996395 / RFU, ING1 / Fold change vs veh, ING1 / RFU, TRMT61B / Fold change vs veh, TRMT61B / RFU, FUBP3 / Fold change vs veh, FUBP3 / RFU, TP53 / Fold change vs veh, TP53 / RFU, TNKS2 / Fold change vs veh, TNKS2 / RFU, ZFP14 / Fold change vs veh, ZFP14 / RFU, ACTR2 / Fold change vs veh, ACTR2 / RFU, PPP3R1 / Fold change vs veh, PPP3R1 / RFU, PIK3R1 / Fold change vs veh, PIK3R1 / RFU, HNRNPA1 / Fold change vs veh, HNRNPA1 / RFU, RNF170 / Fold change vs veh, RNF170 / RFU, ZNF28 / Fold change vs veh, ZNF28 / RFU, RNGTT / Fold change vs veh, RNGTT / RFU, OGT / Fold change vs veh, OGT / RFU, BRD1 / Fold change vs veh, BRD1 / RFU, MARS / Fold change vs veh, MARS / RFU, ZNF655 / Fold change vs veh, ZNF655 / RFU, FAHD1 / Fold change vs veh, FAHD1 / RFU, BDP1 / Fold change vs veh, BDP1 / RFU, LRRCC1 / Fold change vs veh, LRRCC1 / RFU, ARID1A / Fold change vs veh, ARID1A / RFU, ZNF146 / Fold change vs veh, ZNF146 / RFU, ZNF330 / Fold change vs veh, ZNF330 / RFU, GPN3 / Fold change vs veh, GPN3 / RFU, C9orf123 / Fold change vs veh, C9orf123 / RFU, N4BP2L2 / Fold change vs veh, N4BP2L2 / RFU, ARFIP1 / Fold change vs veh, ARFIP1 / RFU, FAM179B / Fold change vs veh, FAM179B / RFU, BCL10 / Fold change vs veh, BCL10 / RFU, UHRF1BP1L / Fold change vs veh, UHRF1BP1L / RFU, BET1 / Fold change vs veh, BET1 / RFU, CNOT2 / Fold change vs veh, CNOT2 / RFU, ZNF268 / Fold change vs veh, ZNF268 / Fold change vs veh, ZNF507 / RFU, DGCR2 / Fold change vs veh, DGCR2 / RFU, WDSUB1 / Fold change vs veh, WDSUB1 / Fold change vs veh, HSP90B1 /// MIR3652 / RFU, ADSS / Fold change vs veh, ADSS / RFU, GK / Fold change vs veh, GK / RFU, ZNF148 / Fold change vs veh, ZNF148 / RFU, TAF9 / Fold change vs veh, TAF9 / RFU, SLC1A5 / Fold change vs veh, SLC1A5 / RFU, SLMO2 / Fold change vs veh, SLMO2 / RFU, ABCC4 / Fold change vs veh, ABCC4 / RFU, LOC101060439 /// RAP1B / Fold change vs veh, LOC101060439 /// RAP1B / RFU, RFX7 / Fold change vs veh, RFX7 / RFU, GTPBP10 / Fold change vs veh, GTPBP10 / RFU, CNEP1R1 / Fold change vs veh, CNEP1R1 / RFU, BIVM-ERCC5 /// ERCC5 / Fold change vs veh, BIVM-ERCC5 /// ERCC5 / RFU, ILF3 / Fold change vs veh, ILF3 / RFU 11762660_at / Fold change /veh 11762660_at / RFU VCAN (11757783_s_at) / Fold change /veh VCAN (11757783_s_at) / RFU DDX43 (11728927_at) / Fold change /veh DDX43 (11728927_at) / RFU KRT8 (11758188_x_at) / Fold change /veh KRT8 (11758188_x_at) / RFU NKD1 (11759106_at) / Fold change /veh NKD1 (11759106_at) / RFU SRD5A1 (11742802_a_at) / Fold change /veh SRD5A1 (11742802_a_at) / RFU TPSAB1 /// TPSB2 (11721975_s_at) / Fold change /veh TPSAB1 /// TPSB2 (11721975_s_at) / RFU GSTM3 (11746129_a_at) / Fold change /veh GSTM3 (11746129_a_at) / RFU IL23R (11737362_x_at) / Fold change /veh IL23R (11737362_x_at) / RFU TMEM51 (11727254_a_at) / Fold change /veh TMEM51 (11727254_a_at) / RFU PIWIL2 (11732686_x_at) / Fold change /veh PIWIL2 (11732686_x_at) / RFU ORM1 (11744905_x_at) / Fold change /veh ORM1 (11744905_x_at) / RFU CCDC152 (11743942_at) / Fold change /veh CCDC152 (11743942_at) / RFU ECM1 (11717891_a_at) / Fold change /veh ECM1 (11717891_a_at) / RFU IL23R (11748794_a_at) / Fold change /veh IL23R (11748794_a_at) / RFU TNFAIP8L3 (11732012_x_at) / Fold change /veh TNFAIP8L3 (11732012_x_at) / RFU MBOAT4 (11741988_at) / Fold change /veh MBOAT4 (11741988_at) / RFU 11764193_at / Fold change /veh 11764193_at / RFU TMEM53 (11763286_at) / Fold change /veh TMEM53 (11763286_at) / RFU MAGEB2 (11727129_at) / Fold change /veh MAGEB2 (11727129_at) / RFU TMEM200A (11744735_a_at) / Fold change /veh TMEM200A (11744735_a_at) / RFU CCDC152 (11751479_a_at) / Fold change /veh CCDC152 (11751479_a_at) / RFU FAM211A (11726209_a_at) / Fold change /veh FAM211A (11726209_a_at) / RFU RGS16 (11746705_a_at) / Fold change /veh RGS16 (11746705_a_at) / RFU VCAN (11755009_s_at) / Fold change /veh VCAN (11755009_s_at) / RFU RHOB (11743442_s_at) / Fold change /veh RHOB (11743442_s_at) / RFU RGS16 (11720943_a_at) / Fold change /veh RGS16 (11720943_a_at) / RFU RGS16 (11720944_at) / Fold change /veh RGS16 (11720944_at) / RFU, VPS4B / Fold change vs veh, VPS4B / RFU, CREB1 / Fold change vs veh, CREB1 / RFU, DNAJC13 / Fold change vs veh, DNAJC13 / RFU, GNAQ / Fold change vs veh, GNAQ / RFU, CDK5R1 / Fold change vs veh, CDK5R1 / RFU, ZRANB3 / Fold change vs veh, ZRANB3 / RFU, CUL4A / Fold change vs veh, CUL4A / RFU, CCNY / Fold change vs veh, CCNY / RFU, UFL1 / Fold change vs veh, UFL1 / RFU, COG3 / Fold change vs veh, COG3 / RFU, DIAPH2 / Fold change vs veh, DIAPH2 / RFU, SKA2 / Fold change vs veh, SKA2 / RFU, AFF3 / Fold change vs veh, AFF3 / RFU, LMF1 / Fold change vs veh, LMF1 / RFU, IPO11 / Fold change vs veh, IPO11 / RFU, DFFB / Fold change vs veh, DFFB / RFU, FOXP1 / Fold change vs veh, FOXP1 / RFU, CARD8 / Fold change vs veh, CARD8 / RFU, STRN3 / Fold change vs veh, STRN3 / RFU, ADK / Fold change vs veh, ADK / RFU, RASSF2 / Fold change vs veh, RASSF2 / RFU, WIPF1 / Fold change vs veh, WIPF1 / RFU, LARP1B / Fold change vs veh, LARP1B / RFU, RASA1 / Fold change vs veh, RASA1 / RFU, RB1 / Fold change vs veh, RB1 / RFU, PPFIA1 / Fold change vs veh, PPFIA1 / RFU, MAT2A / Fold change vs veh, MAT2A / RFU, CCT5 / Fold change vs veh, CCT5 / RFU, WDR92 / Fold change vs veh, WDR92 / RFU, CUX1 / Fold change vs veh, CUX1 / RFU, TTC7A / Fold change vs veh, TTC7A / RFU, TMEM135 / Fold change vs veh, TMEM135 / RFU, DEPTOR / Fold change vs veh, DEPTOR / RFU, CPM / Fold change vs veh, CPM / RFU, DNAJB6 / Fold change vs veh, DNAJB6 / RFU, CACNA2D3 / Fold change vs veh, CACNA2D3 / RFU, DTX4 / Fold change vs veh, DTX4 / RFU, TFCP2 / Fold change vs veh, TFCP2 / RFU, GMCL1 /// GMCL1P1 / Fold change vs veh, GMCL1 /// GMCL1P1 / RFU, AEBP2 / Fold change vs veh, AEBP2 / RFU, SNHG1 /// SNORD22 /// SNORD25 /// SNORD26 /// SNORD27 /// SNORD28 /// SNORD29 /// SNORD31 / Fold change vs veh, SNHG1 /// SNORD22 /// SNORD25 /// SNORD26 /// SNORD27 /// SNORD28 /// SNORD29 /// SNORD31 / Fold change (Aza/veh), C12orf56 (ProbeSet 11735607_a_at) / Fold change (ACY-1035/veh), C12orf56 (ProbeSet 11735607_a_at) / Fold change (Aza/veh), FGFR1OP (ProbeSet 11751329_s_at) / Fold change (ACY-1035/veh), FGFR1OP (ProbeSet 11751329_s_at) / Fold change (Aza/veh), VPS36 (ProbeSet 11739960_a_at) / Fold change (ACY-1035/veh), VPS36 (ProbeSet 11739960_a_at) / RFU SYPL1 (11715823_x_at) / Fold change /veh SYPL1 (11715823_x_at) / RFU IGFBP7 (11715501_s_at) / Fold change /veh IGFBP7 (11715501_s_at) / RFU REEP3 (11722064_at) / Fold change /veh REEP3 (11722064_at) / RFU IGLL1 (11728026_x_at) / Fold change /veh IGLL1 (11728026_x_at): dose or concentration left out as unconfirmed
# Conditions: ProbeSet 11716931_at; LIST B
structure (smiles),measurement,value
Nc1ncn([C@@H]2O[C@H](CO)[C@@H](O)[C@H]2O)c(=O)n1 [azacitidine],"Fold change vs veh, DGCR2",0.93
